Legend:
luciferase-CUG200 mRNA = assay: Dose-response of nuclear export/translation of luciferase-CUG200 reporter mRNA in C2C12 myoblast cell line; format: cell-based, murine; conditions: for EC50: Mus musculus, read-out: EC50 (luciferase from luciferase-CUG200 mRNA)
Experimental: C2C12 murine myoblast cells and Phoenix retrovirus packaging cells were cultivated in DMEM supplemented with 10% FBS. Phoenix cells were transfected with the desired retroviral vector by the Calcium-Phosphate method and, 48 hours after transfection, retrovirus-containing supernatant was supplemented with polybrene and deposited on cells to infect. C2C12 Tet-Off cell lines were generated by infecting cells with the retrovirus pTet-Off IN (Clontech) and selecting for Doxycycline (Dox)-regulated clones. Cell lines expressing the LacZ-5CUG, LacZ-145CUG, LUC-5CUG or LUC-200CUG transcripts were generated by infecting C2C12 Tet-Off cells with the desired reporter construct in the pRevTRE plasmid (Clontech) and selecting for stable clones with inducible expression. The 3′UTR of human DMPK containing 5 CTG repeats or 200 CTG repeats was cloned downstream of the luciferase or beta-galactosidase open reading frames. The C2C12 cell line(s) are cultivated in media containing 1 ng/ml Dox to repress transcription of the reporter constructs.
The two compounds identified by the screening assay described above, which were named compound 15 and 32, have the structure depicted in FIG. 3. Compound 15 has a para-sulfonamide structure, and compound 32 is a benzyl methylthiophene amide. […] The dose-response effect of candidate drugs 15 and 32 on the nuclear export of luciferase-CUG200 mRNA was assessed in the C2C12 myoblast cell line. The amount of CUG repeat RNA that get exported and properly translated into luciferase in response to treatment with varying concentrations of target drugs was measured in order to determine the dose-response curves.

[1] = tested on: CUG-repeat RNA foci (mutant DMPK mRNA); assay: FISH detection and quantification of CUG-repeat RNA foci in DM1 patient myoblasts; format: cell-based, human; conditions: DM1 myoblasts ~1250 CTG, 7 days, 15 μM compound 15 or 5 μM compound 32, vs DMSO (FIG. 4)
Experimental: Human myoblasts were obtained from the Myosix institute associated with the Association Frangaise contre les Myopathies (AFM). Five primary myoblast lines were obtained as controls, and one line from a DM1 patient with a 3.8 Kb CTG triplet amplification corresponding to approximately 1250 CTG repeats. The human myoblasts are cultivated in HAM-F10 media (SIGMA N6635) with 15% FBS, 1% chick embryo extract, and 390 ng/ml of dexamethasone. One day before adding compounds, 2×10^5 cells were plated in 100 mm plates (for CUGBP1 western blot or RT-PCR alternative splicing assay) or 2×10^4 cells/well are seeded in 12-well plates containing 12 mm round glass coverslips (for FISH to detect RNA foci). […]
For fluorescent in situ hybridization (FISH), cells grown on glass coverslips were fixed in PBS containing 4% paraformaldehyde, dehydrated for 2 hours in 70% ethanol, and incubated overnight with 10 ng of probe in 2×SSC 40% formamide at 37° C. […] To quantify the CUG repeat RNA aggregates, the 3D images of the foci were first processed by maximum intensity projection with the MetaMorph™ software (Molecular Devices Inc.), resulting in a 2D image containing all the foci in each cell. […] For each treatment condition, 60 to 80 cells were analyzed and all the data points were presented, with the median value indicated. […]

Normal or DM1 myoblasts = assay: Cytotoxicity assay (Hoescht 33342 / propidium iodide, High Content Screening microscope); format: cell-based, human; conditions: for cellular toxicity: 7 days (FIG. 10)
Experimental: The cellular toxicity of compounds 15 and 32, and their analogs was also measured using a validated cytotoxicity assay. Normal or DM1 myoblasts were treated with 20 μM of compound or DMSO. The ratio of viable cells was measured with a High Content Screening microscope in live cells treated with Hoescht 33342 (labels all cells) and propidium iodide (labels dead cells). The total number of cells was counted and the number of dead cells was subtracted to obtain the number of viable cells, which is presented as a ratio (drug-treated versus DMSO-treated cells). The percentage of dead cells was also measured using propidium iodide.
The cellular toxicity of the compounds was also measured in a dose-response assay. In this assay, normal (M908) and patient (DM1) myoblasts were treated for 7 days with compound 32 or 196 at concentrations varying from 5 to 60 μM. Cell number and cell death was quantified by High Content Screening microscope, as specified above. […] Indeed, the ratio of viable cells at 20 μM of compound 15 is 0.22 (FIG. 10), while for compound 196, an analogue of compound 15, it is above 1 at the same concentration (FIG. 14C).

SMILES | concentration at which plateau / peak of maximal effect was reached (luciferase-CUG200 mRNA) [µM] | EC50 (luciferase-CUG200 mRNA) [µM] | decrease in RNA foci formation (surface occupied by RNA foci in the nucleus) [1] | cellular toxicity (Normal or DM1 myoblasts; 20 μM) | ratio of viable cells (drug-treated versus DMSO-treated) (Normal or DM1 myoblasts; 20 μM, 7 days (FIG. 10, FIG. 14C)) | main phenotype at higher concentrations (Normal or DM1 myoblasts; normal (M908) and DM1 myoblasts, 7 days, 5 to 60 μM) | cytotoxicity in dose-response assay (Normal or DM1 myoblasts; normal (M908) and DM1 myoblasts, 7 days, concentration of 20 μM and below (FIGS. 14A-D))
CCCN(CCC)S(=O)(=O)c1ccc(NS(=O)(=O)Cc2ccccc2)cc1 [Compound 15] | 15 | 6.8 | more than two-fold decrease | some toxicity | 0.22 | – | –
CCCc1c(C(=O)N(Cc2ccccc2)Cc2cccs2)cnn1-c1ccccc1 [Compound 32] | 5 | 2.5 | more than two-fold decrease | little toxicity | – | cytostatic effect | little cytotoxicity

Reference: patent US10092574B2, “Inhibitors of polynucleotide repeat-associated RNA foci and uses thereof” (VALORISATION-RECHERCHE, LIMITED PARTNERSHIP, priority 2013, dated 2018)
